Earlier results, collected in patent publication US20250049902A1, “Method of Developing a Peptide-Based Vaccine Conjugated with 1V209” (VERSITECH LIMITED, priority 2021, published 2025).

What was measured:
TLR7 pathway = settings: reported, ref [3]
[1] = tested on: antigen specific immune responses; settings: small molecule simply mixed with antigens, ref [3]

**Q.** Which TLR7 pathway stimulation (TLR7 pathway) does the source give for COCCOc1nc(N)c2[nH]c(=O)n(Cc3ccc(C(=O)O)cc3)c2n1 [1V209, 4-[[6-Amino-7,8-dihydro-2-(2-methoxyethoxy)-8-oxo-9H-purin-9-yl]methyl]-benzoic acid] here?
**A.** can stimulate the TLR7 pathway as an agonist

**Q.** What about the “induction of antigen specific immune responses” value [1] of the same molecule?
**A.** can hardly induce antigen specific immune responses
